Source: ChEMBL document CHEMBL3886479, “1-H-pyrrolo[2,3-b]pyridine derivatives” (2016)

Target: T1, 3-phosphoinositide-dependent protein kinase 1 (Homo sapiens, UniProt O15530)
T1 sequence (O15530 whole entry): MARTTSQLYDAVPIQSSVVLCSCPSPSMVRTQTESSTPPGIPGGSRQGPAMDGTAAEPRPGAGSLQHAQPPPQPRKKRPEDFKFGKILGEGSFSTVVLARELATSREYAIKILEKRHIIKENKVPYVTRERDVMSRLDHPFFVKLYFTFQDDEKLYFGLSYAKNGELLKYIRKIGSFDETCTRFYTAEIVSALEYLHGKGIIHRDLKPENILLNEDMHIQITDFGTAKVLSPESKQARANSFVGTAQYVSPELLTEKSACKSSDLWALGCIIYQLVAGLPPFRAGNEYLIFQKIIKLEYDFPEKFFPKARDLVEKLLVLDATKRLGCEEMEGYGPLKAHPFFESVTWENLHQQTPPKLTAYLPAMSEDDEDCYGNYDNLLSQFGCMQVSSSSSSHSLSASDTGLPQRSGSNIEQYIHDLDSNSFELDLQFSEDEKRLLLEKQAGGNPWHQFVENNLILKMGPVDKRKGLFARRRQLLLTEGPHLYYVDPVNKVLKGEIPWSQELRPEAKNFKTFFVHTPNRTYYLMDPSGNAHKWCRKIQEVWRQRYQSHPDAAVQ
Assay: Luminex Assay: The cellular assay for the determination of the PDK1 kinase activity is carried out as a Luminex assay in the 96-well format. PC3 cells are sown at 20,000 cells per well in 100 ul of medium (45% of […]/45% of Ham's F12/10% of FCS) and incubated on the following day for 30 min with a serial dilution of the test substance (7 concentrations) under serum-free conditions. The cells are subsequently lysed using 90 ul of lysis buffer (20 mM tris/HCl pH 8.0, 150 mM NaCl, 1% of NP40, 10% of glycerol, 1% of phosphatase inhibitor I, 1% of phosphatase inhibitor II, 0.1% of protease inhibitor cocktail III, 0.01% of benzonase) per well, and the lysates are separated off from insoluble cell constituents by means of centrifugation through a 96-well filter plate (0.65 um). The lysates are incubated overnight at 4° C. with shaking with Luminex beads to which an anti-total PKB antibody is coupled. The detection is carried out on the following day by addition of a phospho-T308-PKB antibody and a species-specific peroxidase-labelled secondary antibody.
Type: cell-based
Conditions: pc-3

IC50: 7.1 nM
SMILES: Cn1cc(-c2cnc3[nH]cc(-c4cc(N(CCC#N)c5ccccc5)nc(N)n4)c3c2)cn1
